In data set [1] the target is T1, human κ-opioid receptor (KOR) (Homo sapiens, UniProt P41145).
T1 construct: expressed in transfected cells
In words: κ-opioid receptor agonistic effect (inhibition of adenylate cyclase, cAMP assay). The note with it: CHO cells stably expressing human KOR; NKH477-stimulated cAMP; four-parameter fit; read-out: ED50 (the source's name). The data set is classed as cell-based. On the procedure:
The efficacy of the compounds of the invention as κ-opioid receptor agonists was determined by measuring the ability of the compounds of Examples to inhibit adenylate cyclase activity.
Cell culture: hamster ovary cells CHO stably expressing human κ-opioid receptor (KOR) gene were cultured in MEMα plus nucleosides medium (Invitrogen) containing 5% FBS.
Stimulation: the test compound was 4-fold diluted in a gradient manner to obtain 11 concentrations, and 100 nl of each was transferred to a 384-well plate, and then a stimulating solution (5 uL) containing NKH477 (Tocris) was added; the cells were digested, re-suspended, and counted; and then the cells (5 uL) were added to wells, mixed gently, and incubated at 37° C. for 30 min.
Detection: cAMP Assay Kit (Cisbio) was used, cAMP-D2 and Anti-cAMP-Cryptate were added separately, and the resultant mixture was incubated for 1 h at room temperature. The plate was read using envision (Perkin Elmer) and EC50 was obtained by means of fitting with a four-parameter equation.
A general note: Changes in cAMP serve as a functional read-out for many G protein-coupled receptors.

In data set [2] the test system is male ICR mice. In words: Acetic acid-induced writhing test in mice. In kind it is in vivo. More on the design: ED50: unit not given here. The note with it: iv administration 15 min before 0.6% acetic acid ip; writhes counted within 15 min. On the procedure:
The analgesic effect of the compound of the invention was evaluated by measuring the ED50 of the compounds of Examples in the acetic acid-induced writhing test in mice.
The commercial glacial acetic acid solution was diluted with physiological saline to 0.6% glacial acetic acid solution. The male ICR mice were randomly separated into the drug group and the model group (to which physiological saline was administration). 15 minutes after iv administration, 0.6% acetic acid solution was intraperitoneally injected at 10 ml/kg, and the mice was immediately recorded with DV camera for 15 min. After the recording, the number of writhes of the mice within 15 min was counted from the video by blind method, the inhibition rate for the writhes was calculated according to Formula (I), and the ED50 of the compound was calculated according to Formula (II).
(I) The inhibition rate for the writhes was calculated by the formula: Inhibition rate (%)=(the number of writhes in a model group−the number of writhes in a drug group)/the number of writhes in a model group*100.
(II) The ED50 was calculated by the formula:
[formula] wherein Xm was the logarithm of the highest dose, d was the difference in the logarithm of two adjacent doses, p was the inhibition rate for each dose group, pm was the highest-dose inhibition rate, and pn was the lowest-dose inhibition rate.
In general terms: An intraperitoneal irritant provokes the stretching counted in writhing tests.

The nature of data set [3]: Pharmacokinetic (PK) study in rats. In kind it is in vivo. As to conditions: male SD rats, intravenous, 1 mg/kg; for AUC(0-t) / Cmax / Vd / half-life: rat, plasma. On the procedure: The pharmacokinetic profile of the compounds of Examples was studied by intravenous administration of the compounds of Examples to male SD rats. The dose for IV administration was 1 mg/kg, and the solvent was 5% DMSO: 5% solutol: 90% physiological saline. After IV administration, blood samples were collected at different time points for PK study. Plasma were treated by protein precipitation and then analyzed by LC-MS/MS.
In LC-MS/MS, mass spectrum was API 5500, and liquid chromatography was Shimadzu LC-30AD system. The column used for the test groups of Compound 3 and Compound 4 was Thermo C18 column (4.6 mm×100 mm, 3 μm); for mobile phases, phase A was water+0.1% formic acid, and phase B was methanol; the flow rate was 0.8 mL/min, and the column temperature was 40° C. The column used for the test group of Compound 5 was Agela AQ C18 column (2.1 mm×50 mm, 1.9 μm); for mobile phases, phase A was water+0.05% formic acid+5 mM acetic acid ammonium, and phase B was methanol+0.05% formic acid; the flow rate was 0.6 mL/min, and the column temperature was 40° C. The ion source used was the ESI source in positive ion mode, and the scanning mode was Multiple Reaction Monitoring (MRM).

Data set [4] has as its target MOR (Homo sapiens, UniProt P35372). In words: Opioid receptor selectivity, radioligand competition binding (3H-DAMGO) on cell membranes. As to conditions: for Ki: Ki=IC50/(1+[radioligand]/Kd), read-out: MOR Ki; for IC50: radioligand 3H-DAMGO, 1 h incubation, read-out: MOR IC50. On the procedure: (§1) The selectivity of the compounds of the invention for κ opioid receptors was determined by measuring the inhibitory effect of the compounds of Examples on the […] of KOR, MOR, and DOR.
(§2) The compounds of Examples at different concentrations were incubated with the cell membrane with high expression of KOR, MOR, DOR and the corresponding radioligand (KOR: 3H-diprenophrine; MOR: 3H-DAMGO; DOR: 3H-DADLE) for 1 h, the compounds of Examples competed with the radioligands for binding to KOR, MOR, DOR. After the incubation, Cell harvest was used to collect cell membranes onto a Unifilter-96 GF/C filter plate, and the unbound radioligands were washed away. The plate was placed in a 50-degree oven for 1 h, and finally the scintillation solution Microscint 20 cocktail was added and the isotope signal was detected by MicroBeta2 Reader.
(§3) According to the intensity of the isotope signal at different concentrations, the IC50 was calculated by means of fitting with a four-parameter equation, and the Ki value was calculated.
(§4) The Ki value was calculated according to the formula Ki=IC50/(1+[radioligand]/Kd), and Kd was the equilibrium dissociation constant of radioligand.
A general note: Displacement assays read how much labelled ligand stays bound in the presence of the test substance.

The target of data set [5] is KOR (Homo sapiens, UniProt P41145). Put plainly: Opioid receptor selectivity, radioligand competition binding (3H-diprenophrine) on cell membranes. The note with it: for Ki: Ki=IC50/(1+[radioligand]/Kd), read-out: KOR Ki; for IC50: radioligand 3H-diprenophrine, 1 h incubation, read-out: KOR IC50. As for the experimental part: as §1, §2, §3, §4
In data set [6] the target is DOR (Homo sapiens, UniProt P41143). In words: Opioid receptor selectivity, radioligand competition binding (3H-DADLE) on cell membranes. As to conditions: for Ki: Ki=IC50/(1+[radioligand]/Kd), read-out: DOR Ki; for IC50: radioligand 3H-DADLE, 1 h incubation, read-out: DOR IC50. On the procedure: as §1, §2, §3, §4

For orientation: AUC(0-t) means the area under the concentration-time curve up to a stated or last time point. For orientation: Cmax means the highest concentration seen after dosing. As a reminder, the Vd is the apparent volume that relates the amount in the body to the concentration in plasma or blood. For orientation: half-life means how long it takes for the measured level to halve. Usually Ki stands for the dissociation constant of the complex between target and ligand, obtained from inhibition or displacement. As a reminder, the IC50 is the concentration at which inhibition is half-maximal.

Molecules are shown by their SMILES.

In the case of `CC(C)C[C@@H](NC(=O)[C@@H](Cc1ccccc1)NC(=O)[C@H](N)Cc1ccccc1)C(=O)N[C@H](CCCCNC[C@@H](O)CO)C(=O)N1CCC(N)(C(=O)O)CC1` [Example 1, 4-amino-1-((R)-2-((R)-2-((R)-2-((R)-2-amino-3-phenylpropanamido)-3-phenylpropanamido)-4-methylpentanamido)-6-(((R)-2,3-dihydroxypropyl)amino)hexanoyl)piperidin-4-carboxylic acid], the EC50 in data set [1] came out at 0.09 nM.

As for `CC(C)C[C@@H](NC(=O)[C@@H](Cc1ccccc1)NC(=O)[C@H](N)Cc1ccccc1)C(=O)N[C@H](CCCCNC[C@H](O)CO)C(=O)N1CCC(N)(C(=O)O)CC1` [Example 2, 4-amino-1-((R)-2-((R)-2-((R)-2-((R)-2-amino-3-phenylpropanamido)-3-phenylpropanamido)-4-methylpentanamido)-6-(((S)-2,3-dihydroxypropyl)amino)hexanoyl)piperidin-4-carboxylic acid], the EC50 in data set [1] came to 0.08 nM.

As to `CC(C)C[C@@H](NC(=O)[C@@H](Cc1ccccc1)NC(=O)[C@H](N)Cc1ccccc1)C(=O)N[C@H](CCCCNCCN)C(=O)N1CCC(N)(C(=O)O)CC1` [Example 3, 4-amino-1-((R)-2-((R)-2-((R)-2-((R)-2-amino-3-phenylpropanamido)-3-phenylpropanamido)-4-methylpentanamido)-6-((2-aminoethyl)amino)hexanoyl)piperidin-4-carboxylic acid], in data set [2], the ED50 is listed as 0.041. In data set [3], the “pharmacokinetic profile (in words)” value is “good exposure amount and Cmax”; the AUC(0-t) turned out to be 1790 ng·h/mL; the Cmax was determined as 2650 ng/mL; the Vd turned out to be 0.28 L/kg. The molecule further had a half-life in data set [3] of 20.4 min. For the same molecule, in data set [4], the inhibitory constant (Ki) is over 7180 nM and the IC50 is over 20000 nM. Further, in data set [5], the Ki was under 0.01 nM and the IC50 is under 0.03 nM. The EC50 in data set [1] is 0.06 nM. In data set [6], the Ki is over 12000 nM and the half-maximal inhibitory concentration (IC50) was over 20000 nM.

For the molecule `CC(C)C[C@@H](NC(=O)[C@@H](Cc1ccccc1)NC(=O)[C@H](N)Cc1ccccc1)C(=O)N[C@H](CCCCNCCCN)C(=O)N1CCC(N)(C(=O)O)CC1` [Example 4, 4-amino-1-((R)-2-((R)-2-((R)-2-((R)-2-amino-3-phenylpropanamido)-3-phenylpropanamido)-4-methylpentanamido)-6-((3-aminopropyl)amino)hexanoyl)piperidin-4-carboxylic acid], the ED50 in data set [2] came to 0.029. In addition, in data set [3], the “pharmacokinetic profile (in words)” value is “good exposure amount and Cmax”; the exposure AUC(0-t) worked out at 2410 ng·h/mL; the Cmax came to 3590 ng/mL; the Vd is 0.74 L/kg. In addition, the half-life in data set [3] is 73.2 min. For the same molecule, in data set [4], the inhibition constant (Ki) was over 7180 nM and the IC50 is over 20000 nM. Further, in data set [5], the Ki is under 0.01 nM and the IC50 was under 0.03 nM. For the same molecule, the EC50 in data set [1] is 0.07 nM. For the same molecule, in data set [6], the Ki is over 12000 nM and the IC50 was over 20000 nM.

As to `CC(C)C[C@@H](NC(=O)[C@@H](Cc1ccccc1)NC(=O)[C@H](N)Cc1ccccc1)C(=O)N[C@H](CCCCNC(CO)CO)C(=O)N1CCC(N)(C(=O)O)CC1` [Example 8, 4-amino-1-((R)-2-((R)-2-((R)-2-((R)-2-amino-3-phenylpropanamido)-3-phenylpropanamido)-4-methylpentanamido)-6-((1,3-dihydroxypropan-2-yl)amino)hexanoyl)piperidin-4-carboxylic acid], the EC50 in data set [1] came out at 0.03 nM.

On to `COCCOCCN(CCCC[C@@H](NC(=O)[C@@H](CC(C)C)NC(=O)[C@@H](Cc1ccccc1)NC(=O)[C@H](N)Cc1ccccc1)C(=O)N1CCC(N)(C(=O)O)CC1)CCOCCOC` [Example 15, 4-amino-1-((R)-2-((R)-2-((R)-2-((R)-2-amino-3-phenylpropanamido)-3-phenylpropanamido)-4-methylpentanamido)-6-(di(2-(2-methoxyethoxy)ethyl)amino)hexanoyl)piperidin-4-carboxylic acid], for which the EC50 in data set [1] amounted to 0.06 nM.

Regarding `CC(C)C[C@@H](NC(=O)[C@@H](Cc1ccccc1)NC(=O)[C@H](N)Cc1ccccc1)C(=O)N[C@H](CCCCNCC(=O)O)C(=O)N1CCC(N)(C(=O)O)CC1` [Example 17, 4-amino-1-((R)-2-((R)-2-((R)-2-((R)-2-amino-3-phenylpropanamido)-3-phenylpropanamido)-4-methylpentanamido)-6-((carboxymethyl)amino)hexanoyl)piperidin-4-carboxylic acid], the EC50 in data set [1] turned out to be 0.42 nM.

On to `COCCOCCNCCCC[C@@H](NC(=O)[C@@H](CC(C)C)NC(=O)[C@@H](Cc1ccccc1)NC(=O)[C@H](N)Cc1ccccc1)C(=O)N1CCC2(CC1)NC(=O)NC2=O` [Example 23, 8-((R)-2-((R)-2-((R)-2-((R)-2-amino-3-phenylpropanamido)-3-phenylpropanamido)-4-methylpentanamido)-6-(2-(methoxyethoxy)ethylamino)hexanoyl)-1,3,8-triaza-spiro[4.5]decane-2,4-dione], for which the EC50 in data set [1] is 0.016 nM.

As for `COCCOCCNCCCC[C@@H](NC(=O)[C@@H](CC(C)C)NC(=O)[C@@H](Cc1ccccc1)NC(=O)[C@H](N)Cc1ccccc1)C(=O)N1C2CC1CN(CC(=O)O)C2` [Example 24, 2-(6-((R)-2-((R)-2-((R)-2-((R)-2-amino-3-phenylpropanamido)-3-phenylpropanamido)-4-methylpentanamido)-6-((2-(2-methoxyethoxy)ethyl)amino)hexanoyl)-3,6-diazabicyclo[3.1.1]heptan-3-yl)acetic acid], in data set [1], the EC50 is 0.005 nM.

For the origin of these results see patent publication US11084847B2, “Polyamide compound and use thereof” (SICHUAN KELUN-BIOTECH BIOPHARMACEUTICAL CO., LTD., priority 2016, dated 2021).
